Assay results from patent US5866575A, “Method of inhibiting HIV integrase” (Lundblad; Leif J. I., priority 1994, dated 1999).

What was measured:
[1] = General toxicity after repeated administration, rabbits; settings: rabbit, in vivo, topical or ocular, dermal, for 28 days, repeated administration (except for local toxicity), read-out: NOEL (no observable effect level) dermal
Description: (§1) General toxicity after repeated administration NOEL (no observable effect level)

[2] = tested on: rats; test: Acute toxicity; format: in vivo
[3] = General toxicity after repeated administration, rats; settings: rat, in vivo, iv, for 28 days, read-out: NOEL (no observable effect level) i.v.
Description: as §1

SMILES: Cc1cc2nc3c4ccccc4n(CCN(C)C)c3nc2cc1C [compound II, 2,3-dimethyl-6-(N,N-dimethylaminoethyl)-6H-indoloquinoxaline]
- NOAEL at 672 h [1]: 200 mg/kg
- LD i.v. ([2]; i.v.): > 100 mg/kg
- LD p.o. ([2]; p.o.): > 800 mg/kg
- NOAEL at 672 h [3]: 12.5 mg/kg
